The text below walks through data of patent US6376501B1, “Type 2 helper T cell-selective immune response suppressors” (Japan Energy Corporation, priority 2000, dated 2002).

In data set [1] the test system is BALB/c mice. As to the kind of experiment: Mouse FITC-induced contact dermatitis model (auricule swelling), ointment. The data set is classed as in vivo. As to conditions: 10 μl on left auricule 2 hr before induction, 24 hr after induction. As to the method:
As a control, Imiquimode (R-837; 4-amino-1-isobutyl-1H-imidazo[4,5-c]quinoline) disclosed in EP 145,340 A was used for comparison. Further, a steroid-type drug Rinderon™ ointment (Shionogi & Co.; 0.12% betamethasone valerate ointment) was used for reference.
The test compound was dissolved in an ointment base (PEG400:PEG4000=7:3) heated to about 80° C. to give a concentration of 1 mg/ml or 10 mg/ml, and then cooled to solid at room temperature to thereby prepare 0.1 or 1% macrogol ointment. Imiquimode (R-837), the control, was also formulated into 0.1 and 1% macrogol ointments.
Seven week-old male BALB/c mice were sensitized by applying 0.2 ml of 0.5% FITC in acetone/dibutyl phthalate (1:1) to the abdomen sheared in advance. Seven days after the sensitization, inflammation was induced by applying 10 μl of 0.5% FITC in acetone/dibutyl phthalate (1:1) to each side of the left auricule (total 20 μl). Before the induction and 24 hr after the induction, the thickness of the auricule was measured with a micrometer. The difference between the two values was taken as the swelling degree. The macrogoal ointment containing the test compound and Rinderon™ ointment (0.12% betamethasonevalerate) were applied to each side of the left auricule in an amount of 5 μl (total 10 μl) 2 hr before the induction. Mice in the placebo group were treated with the macrogol ointment base (PEG400:PEG4000=7:3).
The inflammation inhibitory effect of the ointment of the invention was calculated as an inhibition ratio relative to the swelling degree in the placebo group which was taken as 100%. For example, the inhibition ratios in the groups treated with ointments containing 0.1% and 1% of the compound of Example 59, i.e. 2-butyl-9-(p-fluorobenzyl)-8-hydroxyadenine were 67% and 33%, respectively.

Another data set concerns interleukin-4 (IL-4). As to the kind of experiment: IL-4 production from OVA-sensitized mouse spleen cells induced by antigen stimulation (ELISA). The data set is classed as cell-based. As to conditions: OVA-stimulated sensitized spleen cells, 3 days culture supernatant. As to the method: (§1) 1) Preparation of Sensitized Mouse Spleen Cells
(§2) Seven week-old male BALB/c mice were immunized with 4 mg of aluminium hydroxide gel (100 μl) adsorbing 10 μg of ovalbumin (OVA) by intraperitoneal administration. After 14 days, the mice received a booster injection of the same composition. Seven days after the booster administration, the spleen was removed and suspended in RPMI-1640 medium containing inactivated bovine fetal serum (10% v/v), 2-mercaptoethanol (50 μM), penicillin G (100 U/ml) and streptomycin (100 μg/ml) to prepare a cell suspension.
(§3) 2) Cytokine Production Induced by Antigen Stimulation
(§4) To the spleen cell suspension (5×10^6 cells/200 μl/well), 1/1000 volume of dimethyl sulfoxide solution dissolving OVA (0.5 mg/ml) and a test compound at a specific concentration was added. Then, the cells were cultured at 37° C. under 5% CO2. After 3 days, cytokines in the culture supernatant were determined by ELISA. Specifically, as a Th1 type cytokine, interferon-γ, (IFN-γ) was determined using Mouse IFN-γ ELISA Kit (Amersham). As Th2 type cytokines, interleukin-4 (IL-4) and interleukin-5 (IL-5) were determined with Mouse IL-4 ELISA Kit (Amersham) and Mouse IL-5 ELISA minikit (Endogen), respectively.
On the technique in general: An ELISA detects its analyte on a solid surface through an enzyme-linked reagent.

A further data set relates to interleukin-5 (IL-5). The data set can be described thus: IL-5 production from OVA-sensitized mouse spleen cells induced by antigen stimulation (ELISA). The settings on record: OVA-stimulated sensitized spleen cells, 3 days culture supernatant. It counts as cell-based. On the procedure:
as §1, §2, §3, §4

Another data set deals with interferon-γ (IFN-γ). As to the kind of experiment: IFN-γ production from OVA-sensitized mouse spleen cells induced by antigen stimulation (ELISA). As to conditions: OVA-stimulated sensitized spleen cells, 3 days culture supernatant. The data set is classed as cell-based. As to the method: as §1, §2, §3, §4
Data set [2] has as its system BALB/c mice. The data set can be described thus: Inhibitory effect on eosinophilic infiltration into the abdominal cavity of OVA-immunized mice. As to conditions: for Ratio of Infiltrating Eosinophiles: cells collected two days after; for Inhibition: eosinophile ratio vs control. The data set is classed as in vivo. On the procedure:
Eight week-old male BALB/c mice were immunized with 1.6 mg of aluminium hydroxide gel (200 μl) adsorbing 100 μg of OVA by subcutaneous administration in the back. After 7 days, the mice received a booster injection of the same composition. Seven days after the booster administration, 10 μg of OVA in 200 μl of physiological saline was administered to the mice intraperitoneally. Two days after the intraperitoneal administration, abdominal cavity-infiltrating cells were collected with physiological saline. The total cell count and the eosinophile count in the collected cells were calculated by staining with Türk's solution and Hinkerman's solution, respectively. The test compound was administered orally 2 hours before the OVA intraperitoneal administration.

The mark [3] stands for this setting: 30 mg/kg orally 2 hours before OVA i.p.
Where [4] appears, read: 3 mg/kg orally 2 hours before OVA i.p.

Regarding `CC(C)Cn1cnc2c(N)nc3ccccc3c21` [Example R-837, 4-amino-1-isobutyl-1H-imidazo[4,5-c]quinoline, reference compound], the results for the “inhibition ratio relative to the swelling degree in the placebo group” value with BALB/c mice [1] (0.1% macrogol ointment) and in the data set on BALB/c mice [1] (1% macrogol ointment) were 50% and 67%, respectively.

The term Inhibition denotes the share of the control response that was lost under treatment. Take `CCCCCc1nc(N)c2nc(O)n(Cc3ccccc3)c2n1` [Example 20, 9-Benzyl-8-Hydroxy-2-Pentyladenine]: the IL-4 is 208 pg/mL with interleukin-4 (IL-4) (test compound 0.01 μM), 20 pg/mL in the data set with interleukin-4 (IL-4) (test compound 0.1 μM), below 7.8 pg/mL in the data set on interleukin-4 (IL-4) (test compound 1 μM) and below 7.8 pg/mL in the data set on interleukin-4 (IL-4) (test compound 10 μM). The IL-5 is 3,792 pg/ml in the data set on interleukin-5 (IL-5) (test compound 0.01 μM), 1,667 pg/ml with interleukin-5 (IL-5) (test compound 0.1 μM), 670 pg/mL in the data set with interleukin-5 (IL-5) (test compound 1 μM) and 524 pg/mL in the data set with interleukin-5 (IL-5) (test compound 10 μM). Moreover, the IFN-γ is 25 ng/mL in the data set on interferon-γ (IFN-γ) (test compound 0.01 μM), 135 ng/mL in the data set on interferon-γ (IFN-γ) (test compound 0.1 μM), 193 ng/mL in the data set on interferon-γ (IFN-γ) (test compound 1 μM) and 219 ng/mL in the data set with interferon-γ (IFN-γ) (test compound 10 μM). For the same molecule, the “Ratio of Infiltrating Eosinophiles” value in the data set with BALB/c mice [2] (setting [3]) is recorded as 6.94%. In the data set on BALB/c mice [2] (setting [3]), the Inhibition came to 46.2%.

On to `Cc1nc(N)c2nc(O)n(Cc3cccc(Cl)c3)c2n1` [Example 18, 9-(m-Chlorobenzyl)-8-Hydroxy-2-Methyladenine], for which the values for the IL-4 with interleukin-4 (IL-4) (test compound 0.1 μM), with interleukin-4 (IL-4) (test compound 1 μM) and with interleukin-4 (IL-4) (test compound 10 μM) were 254 pg/mL, below 7.8 pg/mL and below 7.8 pg/mL, respectively. For the same molecule, the IL-5 was 4,150 pg/ml with interleukin-5 (IL-5) (test compound 0.1 μM), 2,321 pg/ml in the data set on interleukin-5 (IL-5) (test compound 1 μM) and 710 pg/mL in the data set on interleukin-5 (IL-5) (test compound 10 μM). For the same molecule, the IFN-γ with interferon-γ (IFN-γ) (test compound 0.1 μM) turned out to be 26 ng/mL; in the data set with interferon-γ (IFN-γ) (test compound 1 μM), 63 ng/mL; in the data set on interferon-γ (IFN-γ) (test compound 10 μM), 181 ng/mL.

Consider `CC(C)c1nc(N)c2nc(O)n(Cc3ccccc3)c2n1` [Example 45, 9-Benzyl-8-Hydroxy-2-Isopropyladenine], for which the IL-4 is 86 pg/mL in the data set on interleukin-4 (IL-4) (test compound 0.1 μM), below 7.8 pg/mL in the data set with interleukin-4 (IL-4) (test compound 1 μM) and below 7.8 pg/mL in the data set on interleukin-4 (IL-4) (test compound 10 μM). The IL-5 in the data set with interleukin-5 (IL-5) (test compound 0.1 μM) is 2,881 pg/ml; with interleukin-5 (IL-5) (test compound 1 μM), 699 pg/mL; in the data set with interleukin-5 (IL-5) (test compound 10 μM), 563 pg/mL. In addition, the IFN-γ with interferon-γ (IFN-γ) (test compound 0.1 μM) amounted to 46 ng/mL; in the data set on interferon-γ (IFN-γ) (test compound 1 μM), 161 ng/mL; in the data set with interferon-γ (IFN-γ) (test compound 10 μM) it was 187 ng/mL.

In general, melting point refers to the temperature, or range, at which the solid turns liquid. `Nc1ncnc2c1nc(O)n2Cc1ccccc1` [Example 1, 9-Benzyl-8-Hydroxyadenine] returned a melting point of 278 to 280 °C.

Turning to `Nc1nc(C2CCCCC2)nc2c1nc(O)n2Cc1ccccc1` [Example 21, 9-Benzyl-2-Cyclohexyl-8-Hydroxyadenine], the IL-4 is 192 pg/mL in the data set on interleukin-4 (IL-4) (test compound 0.1 μM), 11 pg/mL in the data set with interleukin-4 (IL-4) (test compound 1 μM) and below 7.8 pg/mL with interleukin-4 (IL-4) (test compound 10 μM). Further, the IL-5 was 4,103 pg/ml in the data set with interleukin-5 (IL-5) (test compound 0.1 μM), 1,291 pg/ml in the data set with interleukin-5 (IL-5) (test compound 1 μM) and 715 pg/mL in the data set with interleukin-5 (IL-5) (test compound 10 μM). Also, the IFN-γ in the data set on interferon-γ (IFN-γ) (test compound 0.1 μM) turned out to be 28 ng/mL; in the data set on interferon-γ (IFN-γ) (test compound 1 μM) it was 158 ng/mL; in the data set with interferon-γ (IFN-γ) (test compound 10 μM), 170 ng/mL.

Molecule `Nc1ncnc2c1nc(OC(=O)c1ccccc1)n2Cc1ccccc1` [Example 12, 9-Benzyl-8-Benzoyloxyadenine] yielded a melting point of 227 to 229 °C.

For the molecule `CCCCc1nc(N)c2nc(O)n(Cc3ccc(F)cc3)c2n1` [Example 59, 2-Butyl-9-(p-Fluorobenzyl)-8-Hydroxyadenine], the “inhibition ratio relative to the swelling degree in the placebo group” value came out at 67% in the data set with BALB/c mice [1] (0.1% macrogol ointment) and 33% in the data set with BALB/c mice [1] (1% macrogol ointment).

As for `Cc1nc(N)c2nc(O)n(Cc3ccccc3)c2n1` [Example 17, 9-Benzyl-8-Hydroxy-2-Methyladenine], in the data set on BALB/c mice [2] (setting [3]), the “Ratio of Infiltrating Eosinophiles” value stood at 4.70% and the Inhibition came to 62.9%.

As for `Cc1nc(N)c2nc(S)n(Cc3ccccc3)c2n1` [Example 19, 9-Benzyl-8-Mercapto-2-Methyladenine], the IL-4 with interleukin-4 (IL-4) (test compound 0.1 μM) was 296 pg/mL; in the data set on interleukin-4 (IL-4) (test compound 1 μM), 29 pg/mL; in the data set with interleukin-4 (IL-4) (test compound 10 μM), below 7.8 pg/mL. In addition, the IL-5 was 4,482 pg/ml in the data set on interleukin-5 (IL-5) (test compound 0.1 μM), 1,782 pg/ml in the data set on interleukin-5 (IL-5) (test compound 1 μM) and 643 pg/mL in the data set with interleukin-5 (IL-5) (test compound 10 μM). For the same molecule, the IFN-γ in the data set on interferon-γ (IFN-γ) (test compound 0.1 μM) is 16 ng/mL; in the data set on interferon-γ (IFN-γ) (test compound 1 μM), 50 ng/mL; with interferon-γ (IFN-γ) (test compound 10 μM) it was 139 ng/mL.

As for `C[C@@H]1C[C@H]2[C@@H]3CCC4=CC(=O)C=C[C@]4(C)[C@@]3(F)[C@@H](O)C[C@]2(C)[C@@]1(O)C(=O)CO` [Dexamethasone, reference compound], in the data set on BALB/c mice [2] (setting [4]), the “Ratio of Infiltrating Eosinophiles” value came to 10.27% and the Inhibition was 18.9%.

Consider `CCCCn1c(O)nc2c(N)ncnc21` [Example 3, 9-Butyl-8-Hydroxyadenine], for which the melting point was in the range of 222 to 224 °C.

For `CC(C)(C)OC(=O)Oc1nc2c(N)ncnc2n1Cc1ccccc1` [Example 10, 9-Benzyl-8-tert-Butyloxycarbonyloxyadenine], the melting point was in the range of 287 to 289 °C.

On to `Nc1nc(Cc2ccccc2)nc2c1nc(O)n2Cc1ccccc1` [Example 24, 2,9-Dibenzyl-8-Hydroxyadenine], for which the IL-4 in the data set with interleukin-4 (IL-4) (test compound 0.1 μM) is 195 pg/mL; in the data set with interleukin-4 (IL-4) (test compound 1 μM), below 7.8 pg/mL; in the data set with interleukin-4 (IL-4) (test compound 10 μM), below 7.8 pg/mL. In addition, the values for the IL-5 in the data set with interleukin-5 (IL-5) (test compound 0.1 μM), with interleukin-5 (IL-5) (test compound 1 μM) and in the data set on interleukin-5 (IL-5) (test compound 10 μM) were 3,670 pg/ml, 1,130 pg/ml and 345 pg/mL, respectively. In addition, the IFN-γ in the data set on interferon-γ (IFN-γ) (test compound 0.1 μM) was 44 ng/mL; in the data set on interferon-γ (IFN-γ) (test compound 1 μM), 199 ng/mL; with interferon-γ (IFN-γ) (test compound 10 μM), 244 ng/mL.

With `Nc1ncnc2c1nc(O)n2Cc1ccc(F)cc1` [Example 4, 9-(4-Fluorobenzyl)-8-Hydroxyadenine], the melting point is 270 to 272 °C.

The molecule `CC(=O)Oc1nc2c(N)ncnc2n1Cc1ccccc1` [Example 11, 9-Benzyl-8-Acetoxyadenine] yielded a melting point of 189 to 191 °C.

Regarding `CCCCCCCC(=O)Oc1nc2c(N)ncnc2n1Cc1ccccc1` [Example 15, 9-Benzyl-8-Octanoyloxyadenine], the melting point was 248 to 250 °C.
